Read-outs that look alike come from different tables or passages of the source.
How the values were obtained:
[1] = test system: Jurkat E6.1 cells; assay: Apoptosis modulation, caspase-3/-7 activity in Jurkat E6.1 cells + CHX, 8 h; format: cell-based, human; conditions: Jurkat E6.1 + 0.5 μg/mL CHX
Description: Since apoptosis and necroptosis share key molecular players[20] and some RIPK3 necroptosis inhibitors may induce caspase-dependent cytotoxicity, hit compounds were tested for modulation of apoptosis activity in step three of the HTS workflow. Preliminary tests prior to screening encompassed the evaluation of several apoptosis inducers, such as FasL, doxorubicin, cycloheximide (CHX) and staurosporine, for their capability to modulate caspase-3/-7 activity in human Jurkat E6.1 T-cells, using Z-VAD-FMK and SN-2668/Nec-1 as negative and positive controls, respectively. […]
Adenylate kinase (AK) and lactate dehydrogenase (LDH) release from damaged cells were measured using the Toxilight BioAssay Kit (Lonza, Basel, Switzerland) and the Cytotoxicity Detection Kit (Roche Diagnostics GmbH, Mannheim, Germany), respectively. Adenosine triphosphate (ATP) metabolism was evaluated using CellTiter-Glo^TM Luminescent Cell Viability Assay (Promega, Madison, WI, USA). Apoptosis was determined by the measurement of caspase-3/-7 activity using the Caspase-Glo® 3/7 Assay (Promega) according to the manufacturer’s instructions. Cellular metabolic activity was measured using CellTiter 96® Aqueous Non-Radioactive Cell Proliferation (MTS) Assay (Promega). […]
Primary high-throughput screen. […] Eight hours after co-incubation of L929 cells with mTNF-α and test compounds, AK release was evaluated. […]

[2] = test system: L929 cells; assay: Necroptosis inhibition in L929 cells + mTNF-α, 8 h, AK release; format: cell-based, murine; conditions: for EC50: Mus musculus, L929
Description: A total of 251,328 small-molecule compounds were screened in L929 cells incubated with mTNF-α alone or together with test compounds at 31.7 μM for 8 h. Intraplate controls for data normalization consisted of untreated cell wells. L929 cells co-incubated with mTNF-α and SN-2668/Nec-1 served as positive controls (Fig. S2A). […] In HTS step one (primary screening), valid data was obtained for 247,738 compounds, 3353 of which were within the established hit selection criteria, corresponding to a 1.4% hit rate for the full library (Fig. 1a).
The second screening step aimed to determine the EC50 of selected compounds. L929 and Jurkat FADD^-/- cells were co-incubated with TNF-α and test compounds at 10-point concentration range (0.004–100 μM) for 8 h. Compound-mediated inhibition of necroptosis was assessed through AK release and the EC50 calculated. Jurkat cells were used to validate results in human cells. […] In HTS step two, 4374 compounds (3353 hits from HTS step one plus 1021 near neighbours) were evaluated for potency by dose-response curves. From those, 1,438 hit compounds passed the selection criteria on both cell lines, corresponding to a […] hit rate.
L929 cells were co-incubated for 8 h with mTNF-α and test compounds at 31.7 μM after which AK release was measured. […] Hit compounds were then evaluated for apoptosis modulation. Further details are provided as Supplementary Information.
Cell treatments and viability assays. Cells were seeded in 384- or 96-well plates at 1000 or 8000 cells/well (in 12.5 μL or 100 μL final volume), respectively, using a Multidrop^TM Combi Reagent Dispenser (ThermoFisher Scientific). For inducing necroptosis, L929 and Jurkat FADD^-/- cells were incubated with 10 ng/mL mTNF-α and hTNF-α respectively; BV2 cells with 25 µM Z-VAD-FMK, and HT29 cells with 20 ng/mL hTNF-α, 250 nM Smac mimetic BV6 and 10 μM Z-VAD-FMK. Cells were co-incubated in the presence of test compounds at target concentrations for 8 or 24 h. Nec-1 at 29.2 μM was used as positive control. For apoptosis assays, Jurkat E6.1 cells were co-incubated with 0.5 μg/mL CHX and test compounds at target concentrations for 8 h. In cytotoxicity assays, HepG2 and L929 cells were seeded in 96-well plates at 5000 cells/well, in 100 μL final volume. Twenty-four hours after seeding, cells were incubated with test compounds at 50 and 100 μM for additional 24 h.
Adenylate kinase (AK) and lactate dehydrogenase (LDH) release from damaged cells were measured using the Toxilight BioAssay Kit (Lonza, Basel, Switzerland) and the Cytotoxicity Detection Kit (Roche Diagnostics GmbH, Mannheim, Germany), respectively. Adenosine triphosphate (ATP) metabolism was evaluated using CellTiter-Glo^TM Luminescent Cell Viability Assay (Promega, Madison, WI, USA). Apoptosis was determined by the measurement of caspase-3/-7 activity using the Caspase-Glo® 3/7 Assay (Promega) according to the manufacturer’s instructions. Cellular metabolic activity was measured using CellTiter 96® Aqueous Non-Radioactive Cell Proliferation (MTS) Assay (Promega). Luminescence signal was recorded using a GloMax®-MultiDetection System (Promega) and absorbance with a Model 680 microplate reader (Bio-Rad Laboratories Inc, Hercules, CA, USA).
Primary high-throughput screen. Test compounds were arrayed in 384-well white microtiter plates and screened for their potential as necroptosis inhibitors at 32 μM target concentration. Eight hours after co-incubation of L929 cells with mTNF-α and test compounds, AK release was evaluated. […]

[3] = 8 h, 10 ng/mL mTNF-α, AK release, screening step 1 as printed, read-out: EC50 L929 + TNF-α (in vitro)
[4] = read-out: L929 + TNF-α (in vitro) pEC50 (converted)

| Compound | Modulation of caspase-3/-7 activity (apoptosis) [1] | Membrane integrity ([2]; DMSO = 0, no addition = −100, L929, 10 ng/mL mTNF-α, 8 h, Nec-1 at 29.2 μM) | EC50 [2, 3] [µM] | EC50 [2, 4] [µM] |
| --- | --- | --- | --- | --- |
| CN1C(=O)C(Cc2c[nH]c3ccccc23)NC1=S (stereo not shown) [Nec-1, necrostatin-1] | failed to modulate caspase activity | > −100 percentage of control | 1.25 | 1.26 |
| O=C(c1cnn(Cc2ccccc2)c1)N1CCOc2ccccc2C1 [SN-6109] | no apoptosis modulation |  | 6.3 | 6.31 |

From article PMC7026080, “Phenotypic high-throughput screening platform identifies novel chemotypes for necroptosis inhibition” (Cell Death Discovery, 2020)
